32 compounds from US9434711B2 (Janssen Pharmaceutica, NV, priority 2007, dated 2016) can be followed below.

This assay deals with canine TRPM8 (Canis lupus familiaris, UniProt Q1A7N1). The assay is described as follows: In Vitro Canine TRPM8 Functional Assay (Ca2+ fluorescence, icilin activation). In kind it is cell-based. The following applies: HEK293 cells stably expressing canine TRPM8, icilin activation; for inhibition at 0.2 µM: 0.2 μM compound, read-out: % Inh @ 0.2; for IC50: average of two or more determinations, read-out: IC50. Put shortly: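 Canine TRPM8 stably expressed in HEK293; compound added 5 min before icilin challenge (~80% max response), with fluorescent Ca2+ signal tracked throughout.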
Sequence of canine TRPM8 (Q1A7N1 1-1104): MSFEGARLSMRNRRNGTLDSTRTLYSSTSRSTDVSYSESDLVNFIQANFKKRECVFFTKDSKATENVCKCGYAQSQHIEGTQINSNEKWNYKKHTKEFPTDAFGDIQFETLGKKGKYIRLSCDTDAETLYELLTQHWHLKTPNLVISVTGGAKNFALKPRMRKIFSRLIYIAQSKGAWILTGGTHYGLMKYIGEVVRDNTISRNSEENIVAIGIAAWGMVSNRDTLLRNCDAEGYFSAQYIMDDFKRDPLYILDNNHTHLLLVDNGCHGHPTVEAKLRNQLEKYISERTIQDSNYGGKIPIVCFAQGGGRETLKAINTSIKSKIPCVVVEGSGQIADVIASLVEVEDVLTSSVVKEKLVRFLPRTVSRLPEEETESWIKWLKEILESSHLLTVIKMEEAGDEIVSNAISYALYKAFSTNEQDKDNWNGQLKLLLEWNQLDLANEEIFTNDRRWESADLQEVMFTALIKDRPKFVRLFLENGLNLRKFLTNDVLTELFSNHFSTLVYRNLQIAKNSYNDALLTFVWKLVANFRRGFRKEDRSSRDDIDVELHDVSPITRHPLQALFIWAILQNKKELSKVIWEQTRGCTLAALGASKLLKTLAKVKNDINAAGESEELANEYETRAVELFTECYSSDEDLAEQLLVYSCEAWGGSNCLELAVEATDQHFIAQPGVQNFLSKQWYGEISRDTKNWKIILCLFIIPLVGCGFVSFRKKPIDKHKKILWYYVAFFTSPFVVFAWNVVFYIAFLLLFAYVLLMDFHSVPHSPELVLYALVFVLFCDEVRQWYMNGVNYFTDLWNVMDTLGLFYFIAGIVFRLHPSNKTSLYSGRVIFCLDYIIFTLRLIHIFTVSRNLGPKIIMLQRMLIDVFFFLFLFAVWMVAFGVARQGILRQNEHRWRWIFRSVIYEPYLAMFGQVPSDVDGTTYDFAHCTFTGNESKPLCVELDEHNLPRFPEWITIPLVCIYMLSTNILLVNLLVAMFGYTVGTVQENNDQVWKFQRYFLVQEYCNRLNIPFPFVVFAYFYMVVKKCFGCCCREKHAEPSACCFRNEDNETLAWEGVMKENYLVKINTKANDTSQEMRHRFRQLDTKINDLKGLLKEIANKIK

One may read the IC50 as the midpoint of a concentration-inhibition curve.

On to `Cc1c(N(CCCCC(F)(F)F)S(=O)(=O)c2ccc(-c3nn(C)c(=O)[nH]3)cc2)sc2ccccc12` [Compound 812, N-(3-Methyl-benzo[b]thiophen-2-yl)-N-(5,5,5-trifluoro-pentyl)-4-(1-methyl-5-oxo-4,5-dihydro-1H-[1,2,4]triazol-3-yl)-benzenesulfonamide], for which the inhibition at 0.2 µM turned out to be 103% and the concentration for half-maximal inhibition (IC50) worked out at 7.6 nM.
Turning to `O=S(=O)(c1ccccc1)N(Cc1ccc(F)c(C(F)(F)F)c1)c1sc2ncccc2c1Cl` [Compound 813, N-(3-Chloro-thieno[2,3-b]pyridin-2-yl)-N-(4-fluoro-3-trifluoromethyl-benzyl)-benzenesulfonamide], the inhibition at 0.2 µM stood at 90% and the IC50 amounted to 28 nM.
On to `O=C(O)c1cccc(S(=O)(=O)N(Cc2ccc(F)c(C(F)(F)F)c2)c2sc3ncccc3c2Cl)c1` [Compound 814, N-(3-Chloro-thieno[2,3-b]pyridin-2-yl)-N-(4-fluoro-3-trifluoromethyl-benzyl)-3-carboxy-benzenesulfonamide], for which the inhibition at 0.2 µM is 80% and the half-maximal inhibitory concentration (IC50) turned out to be 138 nM.
Consider `O=C(O)c1ccc(S(=O)(=O)N(CCC(F)(F)F)c2sc3ncccc3c2Cl)cc1` [Compound 815, N-(3-Chloro-thieno[2,3-b]pyridin-2-yl)-N-(3,3,3-trifluoro-propyl)-4-carboxy-benzenesulfonamide], for which the inhibition at 0.2 µM was 44%.
On the same count and under the same terms, for `COC(=O)c1cccc(S(=O)(=O)N(Cc2ccc(F)c(C(F)(F)F)c2)c2sc3ncccc3c2Cl)c1` [Compound 816, N-(3-Chloro-thieno[2,3-b]pyridin-2-yl)-N-(4-fluoro-3-trifluoromethyl-benzyl)-3-carbomethoxy-benzenesulfonamide] the value was 15%.
Regarding `O=S(=O)(c1ccccc1)N(CCCF)c1cc2ccccc2s1` [Compound 817, N-(Benzo[b]thiophen-2-yl)-N-(3-fluoro-propyl)-benzenesulfonamide], the inhibition at 0.2 µM amounted to 80% and the IC50 came to 73 nM.
Regarding `Cc1c(N(CCF)S(=O)(=O)c2ccccc2)sc2ccccc12` [Compound 818, N-(2-Fluoro-ethyl)-N-(3-methyl-benzo[b]thiophen-2-yl)-benzenesulfonamide], the inhibition at 0.2 µM amounted to 92% and the 50% inhibitory concentration (IC50) was determined as 62 nM.
For `Cc1c(N(CCCF)S(=O)(=O)c2ccccc2)sc2ccccc12` [Compound 819, N-(3-Fluoro-propyl)-N-(3-methyl-benzo[b]thiophen-2-yl)-benzenesulfonamide], the inhibition at 0.2 µM amounted to 98% and the concentration for half-maximal inhibition (IC50) turned out to be 21 nM.
For `COC(C)c1c(N(CCCF)S(=O)(=O)c2ccccc2)sc2ccccc12` (centres unmarked) [Compound 822, N-(3-Fluoro-propyl)-N-[3-(1-methoxy-ethyl)-benzo[b]thiophen-2-yl]-benzenesulfonamide], the inhibition at 0.2 µM came to 97% and the IC50 is 49 nM.
For `COC(=O)c1ccc(S(=O)(=O)N(CCCF)c2sc3ccccc3c2C)cc1` [Compound 823, N-(3-Fluoro-propyl)-N-(3-methyl-benzo[b]thiophen-2-yl)-4-carbomethoxy-benzenesulfonamide], in that order: 102% and 22 nM.
For `Cc1c(N(CCCF)S(=O)(=O)c2ccc(C(=O)O)cc2)sc2ccccc12` [Compound 824, N-(3-Fluoropropyl)-N-(3-methyl-benzo[b]thiophen-2-yl)-4-carboxy-benzenesulfonamide], in that order: 98% and 38 nM.
For `Cc1c(N(Cc2ccccc2)S(=O)(=O)c2ccc(F)c(F)c2)sc2ccccc12` [Compound 825, N-(Benzyl)-N-(3-methyl-benzo[b]thiophen-2-yl)-3,4-difluoro-benzenesulfonamide], in that order: 89% and 25 nM.
On to `Cc1c(N(Cc2ccc(F)cc2)S(=O)(=O)c2ccc(F)c(F)c2)sc2ccccc12` [Compound 826, N-(4-Fluoro-benzyl)-N-(3-methyl-benzo[b]thiophen-2-yl)-3,4-difluoro-benzenesulfonamide], for which the inhibition at 0.2 µM is 97% and the 50% inhibitory concentration (IC50) worked out at 24 nM.
`CCS(=O)(=O)N(Cc1ccc(F)c(OC)c1)c1sc2ccccc2c1C(C)O` (centres unmarked) [Compound 827, N-(4-Fluoro-3-methoxybenzyl)-N-[3-(1-hydroxyethyl)-benzo[b]thiophen-2-yl]-ethanesulfonamide]: the inhibition at 0.2 µM was 101% and the IC50 came to 6.6 nM.
Regarding `CCS(=O)(=O)N(Cc1ccc(F)c(OC)c1)c1cc2ccccc2s1` [Compound 828, N-(Benzo[b]thiophen-2-yl)-N-(4-fluoro-3-methoxy-benzyl)-ethanesulfonamide], the inhibition at 0.2 µM amounted to 88% and the 50% inhibitory concentration (IC50) was determined as 42.7 nM.
As to `CCS(=O)(=O)N(Cc1ccnc(F)c1)c1sc2ccccc2c1C` [Compound 829, N-(2-Fluoro-pyridin-4-ylmethyl)-N-(3-methyl-benzo[b]thiophen-2-yl)-ethanesulfonamide], the inhibition at 0.2 µM came to 100% and the half-maximal inhibitory concentration (IC50) stood at 23 nM.
For the compound `CC(C)(O)c1c(N(CCCF)S(=O)(=O)c2ccccc2)sc2ccccc12` [Compound 830, N-(3-Fluoropropyl)-N-[3-(1-hydroxy-1-methyl-ethyl)-benzo[b]thiophen-2-yl]-benzenesulfonamide], the inhibition at 0.2 µM is 102% and the half-maximal inhibitory concentration (IC50) was 15 nM.
Taken in the same sequence, the figures for `Cc1c(N(CCCF)S(=O)(=O)c2ccc(F)c(F)c2)sc2ccccc12` [Compound 831, N-(3-Fluoro-propyl)-N-(3-methyl-benzo[b]thiophen-2-yl)-3,4-difluoro-benzenesulfonamide] were 91% and 50 nM.
Taken in the same sequence, the figures for `COCc1c(N(CCCF)S(=O)(=O)c2ccccc2)sc2ccccc12` [Compound 832, N-(3-Fluoro-propyl)-N-(3-methoxymethyl-benzo[b]thiophen-2-yl)-benzenesulfonamide] were 76% and 88 nM.
For the compound `CC(=O)c1c(N(CCCF)S(=O)(=O)c2ccccc2)sc2ccccc12` [Compound 833, N-(3-Acetyl-benzo[b]thiophen-2-yl)-N-(3-fluoro-propyl)-benzenesulfonamide], the inhibition at 0.2 µM turned out to be 102% and the 50% inhibitory concentration (IC50) is 13 nM.
Taken in the same sequence, the figures for `O=S(=O)(c1cc(Br)ccc1Br)N(Cc1ccc(F)c(F)c1)c1sc2ccccc2c1CO` [Compound 834, 2,5-Dibromo-N-(3,4-difluoro-benzyl)-N-(3-hydroxymethyl-benzo[b]thiophen-2-yl)-benzenesulfonamide] were 87% and 123 nM.
Regarding `CCS(=O)(=O)N(Cc1ccnc(F)c1)c1sc2ccccc2c1C(C)O` (centres unmarked) [Compound 835, N-(2-Fluoropyridin-4-ylmethyl)-N-[3-(1-hydroxyethyl)-benzo[b]thiophen-2-yl]-ethanesulfonamide], the inhibition at 0.2 µM amounted to 89% and the IC50 was found to be 55.1 nM.
As to `CCS(=O)(=O)N(Cc1ccnc(F)c1)c1sc2ccccc2c1C(C)(C)O` [Compound 836, N-(2-Fluoro-pyridin-4-ylmethyl)-N-[3-(1-hydroxy-1-methyl-ethyl)-benzo[b]thiophen-2-yl]-ethanesulfonamide], the inhibition at 0.2 µM worked out at 96% and the IC50 is 24 nM.
For `CCS(=O)(=O)N(Cc1ccc(F)c(OC)c1)c1sc2ccccc2c1C(C)=O` [Compound 837, N-(3-Acetyl-benzo[b]thiophen-2-yl)-N-(4-fluoro-3-methoxy-benzyl)-ethanesulfonamide], in that order: 103% and 15 nM.
Take `CCS(=O)(=O)N(Cc1ccc(F)c(OC)c1)c1sc2ccccc2c1C(C)(C)O` [Compound 838, N-(4-Fluoro-3-methoxybenzyl)-N-[3-(1-hydroxy-1-methyl-ethyl)-benzo[b]thiophen-2-yl]-ethanesulfonamide]: the inhibition at 0.2 µM is 101%.
As for `CCS(=O)(=O)N(Cc1ccc(F)c(C(F)(F)F)c1)c1sc2ccccc2c1C(C)OC` (centres unmarked) [Compound 839, N-(4-Fluoro-3-trifluoromethyl-benzyl)-N-[3-(1-methoxy-ethyl)-benzo[b]thiophen-2-yl]-ethanesulfonamide], the inhibition at 0.2 µM turned out to be 101% and the IC50 was 15.9 nM.
Taken in the same sequence, the figures for `CCS(=O)(=O)N(Cc1c(F)cnc(F)c1F)c1sc2ccccc2c1C` [Compound 840, N-(3-Methyl-benzo[b]thiophen-2-yl)-N-(2,3,5-trifluoro-pyridin-4-ylmethyl)-ethanesulfonamide] were 71.1% and 98.1 nM.
Turning to `Cc1c(N(CCF)S(=O)(=O)c2ccc(F)c(F)c2)sc2ccccc12` [Compound 841, N-(2-Fluoro-ethyl)-N-(3-methyl-benzo[b]thiophen-2-yl)-3,4-difluoro-benzenesulfonamide], the inhibition at 0.2 µM stood at 55%.
The same measure, in the same setting: to `COC(=O)c1ccc(S(=O)(=O)N(CCCF)c2cc3ccccc3s2)cc1` [Compound 842, N-(Benzo[b]thiophen-2-yl)-N-(3-fluoro-propyl)-4-carbomethoxy-benzenesulfonamide] belongs 63%; to `COC(=O)c1ccc(S(=O)(=O)N(CCF)c2cc3ccccc3s2)cc1` [Compound 843, N-(Benzo[b]thiophen-2-yl)-N-(2-fluoro-ethyl)-4-carbomethoxy-benzenesulfonamide], 31%.
Same read-out and setting: to `O=S(=O)(c1ccccc1)N(CCF)c1cc2ccccc2s1` [Compound 844, N-(Benzo[b]thiophen-2-yl)-N-(2-fluoro-ethyl)-benzenesulfonamide] belongs 31%; to `Cc1c(N(Cc2ccc(F)cc2)S(=O)(=O)c2ccc(OCc3ccc(F)cc3)c(F)c2)sc2ccccc12` [Compound 845, 3-Fluoro-N-(4-fluoro-benzyl)-4-(4-fluoro-benzyloxy)-N-(3-methyl-benzo[b]thiophen-2-yl)-benzenesulfonamide], 24%.
